Measurements: ChEMBL document CHEMBL4680208, “Sulfone derivatives enter the cytoplasm of Candida albicans sessile cells” (Eur J Med Chem, 2020)
Active and inactive are the calls of the source. No cut-off for these calls is given here.

How the values were obtained:
Candida albicans [1] = test: Antibiofilm activity against Candida albicans 90028 assessed as increasing in cell killing by XTT assay; type: functional
Candida albicans [2] = test: Antifungal activity against Candida albicans 90028 assessed as fungal growth inhibition at 4 ug/ml measured after 48 hrs by microdilution method relative to control; type: functional; settings: read-out: GI
[3] = Cytotoxicity against African green monkey Vero cells by XTT assay; type: cell-based; settings: chlorocebus sabaeus
Candida albicans [4] = test: Induction of cell demise in Candida albicans infected in human MRC5 cells at 16 ug/ml measured after 18 hrs by AO/propidium iodide staining based confocal laser scanning microscopy; type: functional, organism-based; settings: dose 16.0 µg/ml
Candida albicans [5] = test: Antifungal activity against Candida albicans 90028 assessed as fungal growth inhibition at 1 ug/ml measured after 48 hrs by microdilution method relative to control; type: functional; settings: read-out: GI
[6] = Drug uptake in Galleria mellonella larvae assessed as increase in fluorescence near the proventriculus measured after 2 hrs by fluorescence assay; type: ADME
Candida albicans [7] = test: Induction of cell demise in Candida albicans infected in human TR146 cells at 16 ug/ml measured after 18 hrs by AO/propidium iodide staining based confocal laser scanning microscopy; type: functional, organism-based; settings: dose 16.0 µg/ml
Candida albicans [8] = test: Antifungal activity against Candida albicans 90028 assessed as fungal growth inhibition at 0.25 ug/ml measured after 18 hrs by microdilution method relative to control; type: functional; settings: read-out: GI
Candida albicans [9] = test: Antifungal activity against Candida albicans 90028 assessed as fungal growth inhibition at 0.5 ug/ml measured after 18 hrs by microdilution method relative to control; type: functional; settings: read-out: GI
Candida albicans [10] = test: Antifungal activity against Candida albicans 90028 assessed as fungal growth inhibition at 0.25 ug/ml measured after 48 hrs by microdilution method relative to control; type: functional; settings: read-out: GI
Candida albicans [11] = test: Antifungal activity against Candida albicans 90028 assessed as fungal growth inhibition at 0.125 ug/ml measured after 48 hrs by microdilution method relative to control; type: functional; settings: read-out: GI
Candida albicans [12] = test: Antifungal activity against Candida albicans 90028 assessed as fungal growth inhibition at 2 ug/ml measured after 48 hrs by microdilution method relative to control; type: functional; settings: read-out: GI
Candida albicans [13] = test: Induction of plasma membrane permeabilization in Candida albicans infected in human TR146 cells at 16 ug/ml measured after 18 hrs by propidium iodide staining based confocal laser scanning microscopy; type: functional, organism-based; settings: dose 16.0 µg/ml
Candida albicans [14] = test: Antifungal activity against Candida albicans 90028 assessed as fungal growth inhibition at 16 ug/ml measured after 18 hrs by microdilution method relative to control; type: functional; settings: read-out: GI
Candida albicans [15] = test: Antifungal activity against Candida albicans 90028 assessed as fungal growth inhibition at 0.0625 ug/ml measured after 18 hrs by microdilution method relative to control; type: functional; settings: read-out: GI
Candida albicans [16] = test: Antifungal activity against Candida albicans 90028 assessed as fungal growth inhibition at 0.0625 ug/ml measured after 48 hrs by microdilution method relative to control; type: functional; settings: read-out: GI
Candida albicans [17] = test: Antifungal activity against Candida albicans 90028 assessed as fungal growth inhibition at 2 ug/ml measured after 18 hrs by microdilution method relative to control; type: functional; settings: read-out: GI
Candida albicans [18] = test: Fungicidal activity against Candida albicans 90028 preincubated for 48 hrs followed by plating on SD agar and measured after 48 hrs; type: functional; settings: time 96 hrs
Candida albicans [19] = test: Antifungal activity against Candida albicans 90028 assessed as fungal growth inhibition at 0.0313 ug/ml measured after 48 hrs by microdilution method relative to control; type: functional; settings: read-out: GI
Candida albicans [20] = test: Antifungal activity against Candida albicans 90028 assessed as fungal growth inhibition at 0.0313 ug/ml measured after 18 hrs by microdilution method relative to control; type: functional; settings: read-out: GI
Candida albicans [21] = test: Antifungal activity against Candida albicans 90028 assessed as fungal growth inhibition at 16 ug/ml measured after 48 hrs by microdilution method relative to control; type: functional; settings: read-out: GI
[22] = Drug uptake in Galleria mellonella larvae assessed as increase in fluorescence between cell wall and muscle layer measured after 2 hrs by fluorescence assay; type: ADME
[23] = Toxicity in Galleria mellonella larvae assessed as survival at 16 ug/ml relative to control; settings: at 16 µg/mL
Candida albicans [24] = test: Antifungal activity against Candida albicans 90028 assessed as fungal growth inhibition at 1 ug/ml measured after 18 hrs by microdilution method relative to control; type: functional; settings: read-out: GI
Candida albicans [25] = test: Antifungal activity against Candida albicans 90028 assessed as fungal growth inhibition at 4 ug/ml measured after 18 hrs by microdilution method relative to control; type: functional; settings: read-out: GI
Candida albicans [26] = test: Induction of plasma membrane permeabilization in Candida albicans infected in human MRC5 cells at 16 ug/ml measured after 18 hrs by propidium iodide staining based confocal laser scanning microscopy; type: functional, organism-based; settings: dose 16.0 µg/ml
Candida albicans [27] = test: Antifungal activity against Candida albicans 90028 infected in Galleria mellonella larvae at 16 ug/ml by H and E staining based histological analysis; type: functional, organism-based; settings: dose 16.0 µg/ml
Candida albicans [28] = test: Antifungal activity against Candida albicans 90028 assessed as fungal growth inhibition at 0.5 ug/ml measured after 48 hrs by microdilution method relative to control; type: functional; settings: read-out: GI
[29] = Cytotoxicity against human MRC5 cells by CellTiter 96 Aqueous One Solution Reagent based assay; type: cell-based
Candida albicans [30] = test: Antifungal activity against Candida albicans 90028 assessed as fungal growth inhibition at 8 ug/ml measured after 48 hrs by microdilution method relative to control; type: functional; settings: read-out: GI
Candida albicans [31] = test: Antifungal activity against Candida albicans 90028 assessed as fungal growth inhibition at 8 ug/ml measured after 18 hrs by microdilution method relative to control; type: functional; settings: read-out: GI
Candida albicans [32] = test: Antifungal activity against Candida albicans 90028 assessed as fungal growth inhibition at 0.125 ug/ml measured after 18 hrs by microdilution method relative to control; type: functional; settings: read-out: GI
Candida albicans [33] = test: Antifungal activity against Candida albicans 90028 infected in Galleria mellonella larvae assessed as increase in larvae survival at MFC measured 96 hrs post-infection relative to control; type: functional
Candida albicans [34] = test: Antifungal activity against Candida albicans 90028 assessed as fungal growth inhibition measured after 48 hrs by microdilution method; type: functional
[35] = Drug uptake in Galleria mellonella larvae assessed as increase in fluorescence in longitudinal larva slides measured after 2 hrs by fluorescence assay; type: ADME, tissue-based

Structure (SMILES) | inhibition of growth at 4 µg/mL (Candida albicans [2]) [%] | CC50 [3] [µg/mL] | Activity (Candida albicans [4]) | inhibition of growth at 1 µg/mL (Candida albicans [5]) [%] | Activity (Candida albicans [7]) | inhibition of growth at 0.25 µg/mL (Candida albicans [8]) [%] | inhibition of growth at 0.5 µg/mL (Candida albicans [9]) [%] | inhibition of growth at 0.25 µg/mL (Candida albicans [10]) [%] | inhibition of growth at 0.125 µg/mL (Candida albicans [11]) [%] | inhibition of growth at 2 µg/mL (Candida albicans [12]) [%] | Activity (Candida albicans [13]) | inhibition of growth at 16 µg/mL (Candida albicans [14]) [%] | inhibition of growth at 0.0625 µg/mL (Candida albicans [15]) [%] | inhibition of growth at 0.0625 µg/mL (Candida albicans [16]) [%] | inhibition of growth at 2 µg/mL (Candida albicans [17]) [%] | MFC (Candida albicans [18]) [µg/mL] | inhibition of growth at 0.0313 µg/mL (Candida albicans [19]) [%] | inhibition of growth at 0.0313 µg/mL (Candida albicans [20]) [%] | inhibition of growth at 16 µg/mL (Candida albicans [21]) [%] | survival [23] [%] | also measured
C[C@@H]1[C@H](O)[C@@H](C)/C=C/C=C/C=C/C=C/C=C/C=C/C=C/[C@H](O[C@@H]2O[C@H](C)[C@@H](O)[C@H](N)[C@@H]2O)C[C@@H]2O[C@](O)(C[C@@H](O)C[C@@H](O)[C@H](O)CC[C@@H](O)C[C@@H](O)CC(=O)O[C@H]1C)C[C@H](O)[C@H]2C(=O)O | – | – | – | – | – | – | – | – | – | – | – | – | – | – | – | – | – | – | – | – | Activity (Candida albicans [1]): Active
O=[N+]([O-])c1cc(S(=O)(=O)C(Cl)(Cl)Br)ccc1N/N=C\c1ccc(C2=C3C=CC=[N+]3[B-](F)(F)n3cccc32)cc1 | 100 | ≥ 8 | Active | 100 | Active | 100 | 100 | 100 | 99.7 | 100 | Active | 100 | 99.8 | 99.8 | 100 | ≥ 16 | 99.7 | 99.7 | 100 | 93 | Drug uptake [6]: Active; Drug uptake [22]: Active; inhibition of growth at 1 µg/mL (Candida albicans [24]): 100%; inhibition of growth at 4 µg/mL (Candida albicans [25]): 100%; Activity (Candida albicans [26]): Active; Activity (Candida albicans [27]): Active; inhibition of growth at 0.5 µg/mL (Candida albicans [28]): 100%; CC50 [29]: ≥ 256 µg/mL; inhibition of growth at 8 µg/mL (Candida albicans [30]): 100%; inhibition of growth at 8 µg/mL (Candida albicans [31]): 100%; inhibition of growth at 0.125 µg/mL (Candida albicans [32]): 99.7%; Activity (Candida albicans [33]): 61.47%
O=[N+]([O-])c1cc(S(=O)(=O)C(F)(F)I)ccc1N/N=C\c1ccc(C2=C3C=CC=[N+]3[B-](F)(F)n3cccc32)cc1 | 100 | ≥ 8 | Active | 100 | Active | 100 | 100 | 97 | 95.5 | 100 | Active | 100 | 100 | 94.3 | 100 | ≥ 16 | 75.8 | 100 | 100 | 100 | MIC (Candida albicans [34]): inactive; inhibition of growth at 1 µg/mL (Candida albicans [24]): 100%; inhibition of growth at 4 µg/mL (Candida albicans [25]): 100%; Drug uptake [35]: Not Active; Activity (Candida albicans [26]): Active; Activity (Candida albicans [27]): inactive; inhibition of growth at 0.5 µg/mL (Candida albicans [28]): 100%; CC50 [29]: ≥ 16 µg/mL; inhibition of growth at 8 µg/mL (Candida albicans [30]): 100%; inhibition of growth at 8 µg/mL (Candida albicans [31]): 100%; inhibition of growth at 0.125 µg/mL (Candida albicans [32]): 100%
